Reference: ChEMBL document CHEMBL1152236 (Bioorg Med Chem, 2008)

What was measured:
Carbonic anhydrase 1 [1] = biological target: T1, Carbonic anhydrase 1 (Homo sapiens, UniProt P00915); test: Inhibition of human carbonic anhydrase 1 esterase activity by competitive Lineweaver-Burke plot
Carbonic anhydrase 2 [2] = biological target: T2, Carbonic anhydrase 2 (Homo sapiens, UniProt P00918); test: Inhibition of human carbonic anhydrase 2 esterase activity by non-competitive Lineweaver-Burke plot
Carbonic anhydrase 2 [3] = biological target: T2, Carbonic anhydrase 2; test: Inhibition of human carbonic anhydrase 2 esterase activity by spectrophotometry
Carbonic anhydrase 1 [4] = biological target: T1, Carbonic anhydrase 1; test: Inhibition of human carbonic anhydrase 1 esterase activity by spectrophotometry
Carbonic anhydrase 1 [5] = biological target: T1, Carbonic anhydrase 1; test: Inhibition of human carbonic anhydrase 1 esterase activity by noncompetitive Lineweaver-Burke plot
Carbonic anhydrase 2 [6] = biological target: T2, Carbonic anhydrase 2; test: Inhibition of human carbonic anhydrase 2 esterase activity by competitive Lineweaver-Burke plot
Carbonic anhydrase 1 [7] = biological target: T1, Carbonic anhydrase 1; test: Inhibition of human carbonic anhydrase 1 esterase activity by uncompetitive Lineweaver-Burke plot
Carbonic anhydrase 2 [8] = biological target: T2, Carbonic anhydrase 2; test: Inhibition of human carbonic anhydrase 2 esterase activity by uncompetitive Lineweaver-Burke plot

T1 sequence (P00915 whole entry): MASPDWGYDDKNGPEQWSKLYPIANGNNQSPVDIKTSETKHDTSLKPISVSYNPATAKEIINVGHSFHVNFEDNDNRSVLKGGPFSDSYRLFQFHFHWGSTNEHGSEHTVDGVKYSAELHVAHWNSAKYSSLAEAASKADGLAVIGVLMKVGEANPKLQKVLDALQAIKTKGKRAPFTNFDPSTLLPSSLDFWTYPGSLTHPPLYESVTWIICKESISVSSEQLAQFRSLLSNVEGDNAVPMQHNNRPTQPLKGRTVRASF

| Structure (SMILES) | Ki (Carbonic anhydrase 1 [1]) [µM] | Ki (Carbonic anhydrase 2 [2]) [µM] | IC50 (Carbonic anhydrase 2 [3]) [µM] | IC50 (Carbonic anhydrase 1 [4]) [µM] | Ki (Carbonic anhydrase 1 [5]) [µM] | Ki (Carbonic anhydrase 2 [6]) [µM] | Ki (Carbonic anhydrase 1 [7]) [µM] | Ki (Carbonic anhydrase 2 [8]) [µM] |
| --- | --- | --- | --- | --- | --- | --- | --- | --- |
| O=C(O)c1cc(S(=O)(=O)O)ccc1O [SULFOSALICYLIC] | 770 | 1920 | 290 | 420 | – | – | – | – |
| CC(=O)Oc1ccccc1C(=O)O [ASPIRIN] | – | – | – | 2710 | 7530 | – | – | – |
| O=C(O)c1cc(-c2ccc(F)cc2F)ccc1O [DIFLUNISAL] | – | – | – | 3.38 | 8.45 | – | – | – |
| O=C(O)c1ccc(S(=O)(=O)O)cc1O | – | – | 720 | 290 | – | 1060 | 480 | – |
| Nc1ccc(C(=O)O)c(O)c1 [AMINOSALICYLIC ACID] | – | 1230 | 750 | 130 | 240 | – | – | – |
| O=C(O)c1cc(Cl)ccc1O [5-CHLOROSALICYLIC ACID] | – | – | – | 4.07 | – | – | 4.16 | – |
| O=C(O)c1cc(/N=N/c2ccc(S(=O)(=O)Nc3ccccn3)cc2)ccc1O [SULFASALAZINE] | – | 8.72 | 4.49 | 3.04 | 6.87 | – | – | – |
| O=C(O)c1c(O)cc([N+](=O)[O-])cc1[N+](=O)[O-] | – | – | – | 7.64 | 14.8 | – | – | – |
| Cc1cccc(C(=O)O)c1O [HYDROXYTOLUIC ACID] | – | – | 4700 | 3070 | 11400 | – | – | 10600 |
